Results: article PMC7196072, “Cryo-EM structures of PAC1 receptor reveal ligand binding mechanism” (Cell Research, 2020)
Read-outs that look alike come from different tables or passages of the source.

What was measured:
[1] = test system: PAC1R construct used in the cryo-EM studies; format: cell-based, human; details: cAMP, BacMam CHO-K1, pH 7.4, 30 min 37 °C, average ± SD, N=3
Description: WT PAC1R and mutations used in the functional assay were cloned into pJIF1.1 for BacMam virus generation.
CHO-K1 cells were cultured in DMEM supplemented with 10% FBS and infected with BacMam viruses with a MOI of 100. 24 h after infection, cells were collected for membrane preparation or functional assay.
Activation of WT PAC1R and mutants was measured based on intracellular cAMP levels using Lance Ultra cAMP kit (PerkinElmer) according to the manufacturer’s protocol. […] Then 5 µL of 4× Eu-cAMP and 5 µL of 4× Ulight-Anti-cAMP working solutions were added to each well and incubated at room temperature for 60 min before reading with Envision (PerkinElmer). All signals (ratio of 665 nm/615 nm) were fit with a sigmoidal dose-response model using GraphPad Prism 7.
Both the average and S.D.
are calculated based 3 rounds of independent assays in 3 different days (N=3), and on each
day, duplicates were run for each dose on dose response curves.
# Ratio to WT is calculated as EC50 of mutation to EC50 of WT.
† The best-fit value of pEC50 from 3 different assays was used to calculate p value in T-test,
between WT and each mutation, with 2-tailed and equal variance (homoscedastic).

[2] = cited from earlier work
Text: As the major sensory and vasodilator neuropeptides, PACAP38 and VIP are involved in parasympathetic communication with the cranial vasculature. Abnormal activation and sensitization of the central trigeminovascular pain pathway mediate migraine and the release of these peptides.[5]

| Molecule | pEC50 [1] | induction of delayed migraine-like headaches ([2]; in vivo, iv) | induction of delayed migraine-like headaches ([2]; intravenous infusion) |
| --- | --- | --- | --- |
| CC[C@H](C)[C@H](NC(=O)CNC(=O)[C@H](CC(=O)O)NC(=O)[C@H](CO)NC(=O)[C@@H](N)Cc1cnc[nH]1)C(=O)N[C@@H](Cc1ccccc1)C(=O)N[C@H](C(=O)N[C@@H](CC(=O)O)C(=O)N[C@@H](CO)C(=O)N[C@@H](Cc1ccc(O)cc1)C(=O)N[C@@H](CO)C(=O)N[C@@H](CCCNC(=N)N)C(=O)N[C@@H](Cc1ccc(O)cc1)C(=O)N[C@@H](CCCNC(=N)N)C(=O)N[C@@H](CCCCN)C(=O)N[C@@H](CCC(N)=O)C(=O)N[C@@H](CCSC)C(=O)N[C@@H](C)C(=O)N[C@H](C(=O)N[C@@H](CCCCN)C(=O)N[C@@H](CCCCN)C(=O)N[C@@H](Cc1ccc(O)cc1)C(=O)N[C@@H](CC(C)C)C(=O)N[C@@H](C)C(=O)N[C@@H](C)C(=O)N[C@H](C(=O)N[C@@H](CC(C)C)C(=O)NCC(=O)N[C@@H](CCCCN)C(=O)N[C@@H](CCCNC(=N)N)C(=O)N[C@@H](Cc1ccc(O)cc1)C(=O)N[C@@H](CCCCN)C(=O)N[C@@H](CCC(N)=O)C(=O)N[C@@H](CCCNC(=N)N)C(=O)N[C@H](C(=O)N[C@@H](CCCCN)C(=O)N[C@@H](CC(N)=O)C(=O)N[C@@H](CCCCN)C(N)=O)C(C)C)C(C)C)C(C)C)[C@@H](C)O [PACAP38, pituitary adenylate cyclase-activating polypeptide] | 9.71 ± 0.21 | induces delayed migraine-like headaches | – |
| vasoactive intestinal polypeptide [VIP] | – | – | but not VIP induces delayed migraine-like headaches |
